In US20240173333A1, “Treating Alagille Syndrome (ALGS)” (priority 2022, published 2024):
Read-outs that look alike come from different tables or passages of the source.

Legend:
[1] = test system: patients with Alagille syndrome (ALGS); assay: Pooled ASSERT and ASSERT-EXT: serum bile acids, autotaxin, C4; format: in vivo, human
Protocol: In the completed 24-week ASSERT study, patients with ALGS with history of significant pruritus and elevated serum BAs were randomized 2:1 to once-daily odevixibat 120 μg/kg or placebo, respectively. Patients who completed ASSERT could enter ASSERT-EXT, an ongoing, 72-week open-label extension study in which all patients receive odevixibat 120 μg/kg/day. This pooled analysis included all odevixibat-treated patients from ASSERT and/or ASSERT-EXT and spans from patients' first dose of odevixibat to a data cut-off of Sep. 9, 2022. Assessments over up to 36 weeks of treatment included change in observer-reported scratching scores and sleep parameters, as well as levels of serum BAs, autotaxin (a proposed meditator of pruritus), and 7 alpha-hydroxy-4-cholesten-3-one (C4; a marker of bile acid synthesis). Safety evaluations included assessment of alanine aminotransferase (ALT), total bilirubin, and treatment-emergent adverse events (TEAEs).

[2] = test system: patients with Alagille syndrome (ALGS); assay: ASSERT pruritus responders: serum bile acids
Source text: Treatment with concomitant medications for pruritus was permitted provided the patient was on a stable dosage for ≥4 weeks prior to enrollment that was maintained throughout the study.
Pruritus responders were defined as patients having a ≥1-point decrease in ObsRO scratching score from baseline to weeks 21-24).

[3] = test system: patients with Alagille syndrome (ALGS); assay: ASSERT phase 3 trial: ObsRO scratching score and pruritus response; format: in vivo, human; conditions: 120 μg/kg/day
Protocol: Odevixibat is an orally administered, potent, luminally restricted, selective IBAT inhibitor in development to treat cholestatic liver diseases. In this phase 3, double-blind, randomized, 24-week trial (ASSERT), the efficacy and safety of odevixibat versus placebo was evaluated in patients with Alagille Syndrome (ALGS). The efficacy of odevixibat in patients with ALGS was evaluated in a 24-week, randomized, double-blind, placebo-controlled trial conducted in 52 patients with a confirmed diagnosis of ALGS (NCT04674761; ASSERT). Patients were randomized 2:1 to receive odevixibat 120 μg/kg/day or placebo.
The study consisted of a screening phase and parallel-design treatment period. Two screening visits occurred: the first took place during days −56 to −21 prior to the first dose of study drug and the second occurred during days −49 to ˜14. On day 0, all eligible patients were randomized 2:1 to oral, 120 μg/kg/day odevixibat or once-daily placebo. Eligibility for randomization was determined using pruritus or scratching reports from observer reported outcome (ObsRO)/patient reported outcome (PRO) data for evaluation of itching (PRO), scratching (ObsRO), and sleep disturbance (PRO and ObsRO) in the 14 days before Study Day 1, clinical genetic confirmation of diagnosis, and the liver biochemistry evaluations from the previous screening visits. After written informed consent was obtained, an Interactive Web Response System (IWRS) was used to assign patients to treatment. The randomization codes were computer generated by Albireo or a qualified randomization vendor.
A single primary endpoint was evaluated. The primary endpoint in this study was the change from baseline in scratching to Month 6 (Weeks 21 to 24) as measured by the observer-reported outcome (ObsRO) instrument.
Itching, Scratching, and Sleep Parameters. Itching, observed scratching, and sleep disturbance were recorded twice each day via eDiary. Patients and/or caregivers were instructed to complete the eDiary every day in the morning after the patient woke and in the evening just before the patient went to sleep throughout the study. The eDiary included ObsRO and PRO items. The PRO items assessed severity of itch, aspects of sleep disturbance (morning diary only), and tiredness. The ObsRO items assessed severity of observed scratching, aspects of observed sleep disturbance (morning diary only), and signs of tiredness (evening diary only). […]
Statistical Analyses. […] After a minimum of 18 patients had completed the Week 16 visit, the pooled SD of change from baseline to Month 4 (Weeks 13-16 assessments) and available change from baseline to Month 6 (Weeks 21-24 assessments) in average monthly scratching score was calculated by an independent statistician to assess the need for sample size re-estimation. […]

[4] = test system: pediatric patient with genetic confirmation of ALGS
Source text: The ileal bile acid transporter (IBAT) is a regulator of the enterohepatic bile acid circulation (Karpen et al.). Given the central feature of cholestasis in ALGS and the role of IBAT in bile acid homeostasis, IBAT inhibitors may help alleviate symptoms of ALGS. The IBAT inhibitor odevixibat is indicated for treatment of pruritus in patients ≥3 months old with progressive familial intrahepatic cholestasis (PFIC), another pediatric cholestatic liver disease, in the US and for treatment of PFIC in patients aged ≥6 months in the European Union.
The patient was referred to specialist care […]. […] […], a liver biopsy was performed.
During this clinical course, the patient received UDCA (15 mg/kg body weight) and naltrexone (1 mg/kg/day), treatments that were pursued according to German treatment guidelines and following discussions among the care team and with the patient's parents.

SMILES: CCCCC1(CCCC)CN(c2ccccc2)c2cc(SC)c(OCC(=O)N[C@@H](C(=O)N[C@@H](CC)C(=O)O)c3ccc(O)cc3)cc2S(=O)(=O)N1 [odevixibat, 1,1-dioxo-3,3-dibutyl-5-phenyl-7-methylthio-8-(N-{(R)-α-[N-((S)-1-carboxypropyl)carbamoyl]-4-hydroxybenzyl}carbamoylmethoxy)-2,3,4,5-tetrahydro-1,2,5-benzothiadiazepine]
- mean BA level ([1]; average of weeks 20 and 24): 145 µmol/L
- mean BA level ([1]; baseline, before odevixibat): 246 µmol/L
- mean p-C4 levels following treatment ([1]; up to 36 weeks): approached normal levels
- mean BA level ([1]; week 4): 116 µmol/L
- mean BA level ([1]; week 36): 116 µmol/L
- Bile acids, Week 24 Mean (SE) ([2]; average of weeks 20 and 24, n=28): 136 (19) μmol/L
- Bile acids, Mean (SE) Change From Baseline ([2]; baseline to average of weeks 20 and 24): −107 (23) μmol/L
- Bile acids, Baseline Mean (SE) ([2]; n=28): 243 µmol/L
- Bile acids, Baseline Mean (SE) ([2]; n=28, listed as Odevixibat): 243 (23) μmol/L
- LS mean change from baseline in scratching score (ObsRO) ([3]; baseline to Weeks 21-24, 34 patients): −1.69 points
- improvement in pruritus (mean monthly ObsRO scratching score) observed as early as ([3]; onset of effect): 1 week
- percentage of patients who were pruritus responders (≥1-point reduction in monthly scratching score from baseline) ([3]; week 12): 74%
- percentage of patients who were pruritus responders (≥1-point reduction in monthly scratching score from baseline) ([3]; week 24 (weeks 21-24), n=35): 80%
- effect of dosage change on sBAs ([4]; 30 μg/kg/day, September to October 2021): associated with an increase in sBAs
- drop in sBAs ([4]; Apr. 27, 2021 to May 31, 2021, 120 μg/kg/day started May 19, 2021): approximately 90%
- sBAs after start of odevixibat ([4]; May 31, 2021, from 700 μmol/L on Apr. 27, 2021, 120 μg/kg/day): 69 µmol/L
- bowel movements improved after ([4]; after starting odevixibat): 1 week
- pruritus almost entirely disappeared within ([4]; after starting odevixibat): ≤ 2 weeks
- pruritus stopped completely after ([4]; after starting odevixibat): 8 months
- effect of dosage change on sBAs ([4]; back to 120 μg/kg/day in mid-December): corresponded with a drop in sBAs
- adverse events ([4]; in vivo): did not experience any adverse events
- sBA levels reached the normal range after ([4]; treatment duration): 8 months
